For assay [1], the system named is imMKCL. Description: HDAC6 inhibitor addition in static culture: cell morphology by microscope. The settings on record: for degree of hypertrophy: versus DMSO group; for cell morphology (apoptosis, hypertrophy): Day 3 from gene off; for PPF associated with megakaryocyte maturation: Day 5 from gene off. It is filed as cell-based, human. On the procedure: To confirm if apoptosis was caused due to the drug addition, cell morphology was observed when dimethyl sulfoxide (DMSO) was used as a solvent control of the drug or an HDAC6 inhibitor was added at the time of starting the culture in the platelet producing medium in a static culture under the same conditions as above. […] In the photograph, cell hypertrophy associated with megakaryocyte maturation is observed. […] PPF associated with megakaryocyte maturation is recognized. FIG. 24, panels (e) and (f) show cell morphology on Day 5 from the gene off static culture to which BML-281 100 nM was added and to which Nexturastat A 2 μM was added, respectively. […] Additionally, when an HDAC6 inhibitor was added, the degree of megakaryocyte maturation is rather hindered but proceeds to hypertrophy. Based on the above findings, HDAC6, seems to have role in the proplatelet formation.

The next assay addresses T1, HDAC6 (Homo sapiens, UniProt Q9UBN7).
T1 sequence (Q9UBN7 1-1215): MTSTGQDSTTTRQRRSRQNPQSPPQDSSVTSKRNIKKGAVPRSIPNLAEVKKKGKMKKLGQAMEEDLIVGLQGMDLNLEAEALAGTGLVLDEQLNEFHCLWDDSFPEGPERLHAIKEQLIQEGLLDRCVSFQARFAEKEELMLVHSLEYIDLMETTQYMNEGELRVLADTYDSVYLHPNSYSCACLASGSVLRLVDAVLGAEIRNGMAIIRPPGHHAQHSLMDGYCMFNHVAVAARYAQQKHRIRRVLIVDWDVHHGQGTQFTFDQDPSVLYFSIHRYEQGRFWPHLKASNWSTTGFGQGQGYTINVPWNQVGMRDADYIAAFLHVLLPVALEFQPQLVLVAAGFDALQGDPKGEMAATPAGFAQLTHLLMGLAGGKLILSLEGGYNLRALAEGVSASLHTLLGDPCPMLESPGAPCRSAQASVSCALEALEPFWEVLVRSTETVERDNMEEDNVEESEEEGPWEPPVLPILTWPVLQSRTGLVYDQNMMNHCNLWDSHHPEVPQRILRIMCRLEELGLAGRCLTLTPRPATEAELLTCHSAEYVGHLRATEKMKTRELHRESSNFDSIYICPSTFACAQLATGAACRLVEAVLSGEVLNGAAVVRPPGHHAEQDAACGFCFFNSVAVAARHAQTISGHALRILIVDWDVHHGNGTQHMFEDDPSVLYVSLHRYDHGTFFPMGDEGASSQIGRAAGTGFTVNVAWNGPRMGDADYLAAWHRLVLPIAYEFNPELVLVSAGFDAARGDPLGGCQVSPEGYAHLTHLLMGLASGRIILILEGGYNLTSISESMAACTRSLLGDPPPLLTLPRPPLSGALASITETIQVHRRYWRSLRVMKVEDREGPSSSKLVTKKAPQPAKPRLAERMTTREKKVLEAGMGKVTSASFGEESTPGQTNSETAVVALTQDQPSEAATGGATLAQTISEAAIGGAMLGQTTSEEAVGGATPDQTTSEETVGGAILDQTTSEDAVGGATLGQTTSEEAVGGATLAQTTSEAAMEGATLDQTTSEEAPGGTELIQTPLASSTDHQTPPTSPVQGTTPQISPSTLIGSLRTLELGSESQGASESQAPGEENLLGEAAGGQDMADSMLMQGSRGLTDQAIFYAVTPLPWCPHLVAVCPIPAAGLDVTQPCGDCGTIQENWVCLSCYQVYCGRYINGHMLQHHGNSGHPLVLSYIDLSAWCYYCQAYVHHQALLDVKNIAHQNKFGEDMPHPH
The settings on record: cited from earlier work.

Assay [2] deals with imMKCL. Description: HDAC6 inhibitor addition in shaking flask culture: number of platelets. It is filed as cell-based, human. As to conditions: for number of platelets produced: added in a concentration of 100 nM or more to a medium. On the procedure:
After turning genes (c-MYC, BMI1, and BCL-XL) off, 1×10^5 cells/ml of imMKCL was seeded in a flask to carry out shaking flask culture using a platelet producing medium. The culture was carried out under the shaking conditions of 100 rpm, 37° C., and 5% CO2. To the platelet producing medium, BML-281 1 nM, 10 nM, or 100 nM, or Nexturastat A 20 nM was added as an HDAC6 inhibitor at the time of starting the culture. […] The number of platelets was measured on Day 6 after addition of these HDAC6 inhibitors.
(§1) After turning genes (c-MYC, BMI1, and BCL-XL) off, 1×10^5 cells/ml of imMKCL was seeded in a flask to carry out shaking flask culture using a platelet producing medium under a shaking condition of 100 rpm. Further, after turning genes (c-MYC, BMI1, and BCL-XL) off, 1×10^5 cells/ml of imMKCL was seeded in a culture dish to carry out static culture. For both shaking culture and static culture, BML-281 100 nM, or Nexturastat A 500 nM, 1 μM, or 2 μM was added at the time of starting the cultures. The number of platelets was measured on Day 6 from addition of these HDAC6 inhibitors. Additionally, Annexin V positive ratios of the obtained platelets were measured.
(§2) Subsequently, in order to examine in more detail which process in megakaryocyte maturation is affected by the HDAC6 inhibitor, the timing of adding Nexturastat A 2 μM during the flask culture was changed to Day 3, Day 4, and Day 5 from the start of the culture after the gene off and the effect on the amount of platelets to be produced was studied. Culture conditions other than the timing of adding HDAC6 inhibitors were the same as those in the experiment referring to FIGS. 21 to 24. […] In FIG. 24, panel (c), PPF was recognized at Day 5 in static culture. In view of this, the effect available at the time of shedding platelets (presumed mechanism) seems to be about 40%.

Assay [3] relates to imMKCL. Briefly: HDAC6 inhibitor addition in static culture (Dish): number of platelets. Type of assay: cell-based, human. How it is done: as §1, §2

`CC(C)(C)OC(=O)Nc1ccc(-c2cc(C(=O)NCCCCCCC(=O)NO)no2)cc1` [BML-281, N-Hydroxy-7-[5-(4-tertbutoxycarbonylaminophenyl)-3-isoxazolecarboxamido]heptanamide]: in the assay on imMKCL [1] (Day 3, 100 nM), the degree of hypertrophy entry is recorded as “slightly lower than the group containing DMSO”. In addition, in the assay on imMKCL [1] (100 nM), the “cell morphology (apoptosis, hypertrophy)” value is reported as “Apoptosis is not recognized but cell hypertrophy is recognized” and the “PPF associated with megakaryocyte maturation” value is “not recognized”. The “known HDAC inhibition” value at HDAC6 was “inhibit HDAC6, 1, 2, 7, 8, and 10”. Further, the “number of platelets produced” value in the assay on imMKCL [2] is on record as “considerably suppress the number of platelets produced”. For the same molecule, the “platelet production (number of platelets on Day 6)” value in the assay with imMKCL [2] (shaking flask culture, 100 nM added at start of culture) is on record as “notable reduction in the platelet production”.
On to `CCCCN(Cc1ccc(C(=O)NO)cc1)C(=O)Nc1ccccc1` [Nexturastat A, 4-[[Butyl[(phenylamino)carbonyl]amino]methyl]-N-hydroxybenzamide], for which the degree of hypertrophy result in the assay on imMKCL [1] (Day 3, 2 μM) was “slightly lower than the group containing DMSO”. In addition, the “cell morphology (apoptosis, hypertrophy)” value with imMKCL [1] (2 μM) was “Apoptosis was not recognized but cell hypertrophy was observed”. Moreover, the “PPF associated with megakaryocyte maturation” value with imMKCL [1] (2 μM) is “not recognized”. The “reduction of number of platelets produced” value in the assay with imMKCL [3] (static culture (Dish), 2 μM added on Day 5) is reported as “about 40%”. Moreover, the “number of platelets produced on Day 6, concentration dependence” value is “decreases in an inhibitor concentration-dependent manner” with imMKCL [3] (static culture, 500 nM, 1 μM, or 2 μM added at start) and “decreases in an inhibitor concentration-dependent manner” with imMKCL [2] (shaking flask culture, 500 nM, 1 μM, or 2 μM added at start). In addition, at HDAC6, the “known HDAC inhibition” value is listed as “specifically inhibit HDAC6”. In addition, the “number of platelets produced” value in the assay on imMKCL [2] is “considerably suppress the number of platelets produced”. The “platelet production (number of platelets on Day 6)” value in the assay on imMKCL [2] (shaking flask culture, 2 μM added) is recorded as “notable reduction in the platelet production”. Moreover, the platelet production entry in the assay on imMKCL [2] (shaking flask culture, 2 μM added on Day 0 or Days 3 and 4 after gene off) is listed as “notable reduction in the platelet production”; with imMKCL [2] (shaking flask culture, 2 μM added on Day 5 after gene off), “production equivalent to that in non-addition group”.
